Measurements published in patent US12180207B2 (ARRAY BIOPHARMA INC., priority 2018, dated 2024).

How the values were obtained:
[1] = target: HEK-293 cells transfected with dox-inducible human wild type FGFR1 (Homo sapiens (Human), UniProt P11362); test: FGFR1 pERK cell assay; assay type: cell-based; conditions: HEK-293 dox-inducible FGFR1, 1 hour compound, 100 ng/ml FGF-acidic; maximum concentration 5 μM
Method in brief: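 In HEK-293 cells with dox-induced human wild-type FGFR1, compounds (1:3 dilutions, top 5 μM final) were applied 1 h at 37°C before 5 min stimulation with 100 ng/ml FGF-acidic. Phospho-ERK1/2 measured by MSD sandwich immunoassay; IC50 from 4-parameter fit of POC versus vehicle and control compound.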

[2] = target: FGFR3 (SEQ ID NO: 5, amino acids 449-759) (Homo sapiens (Human), UniProt P22607); test: LC/MS FGFR3 kobs assay (covalent protein modification); assay type: binding; conditions: 500 nM FGFR3, 3 μM compound
Method in brief: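 The observed rate constant kobs comes from an exponential decay fit of percent unmodified kinase over time. Covalent modification was quantified by Q-TOF LC/MS of formic acid-quenched samples, normalized against DMSO controls.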

[3] = target: dephosphorylated FGFR1 (SEQ ID NO: 1, amino acids 458 to 765) (Homo sapiens (Human), UniProt P11362); test: FGFR enzyme binding assay (HTRF tracer displacement), FGFR1; conditions: 5 nM dephosphorylated FGFR1, average of multiple determinations if made
Method in brief: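 Compounds were tested for displacement of a tracer from human FGFR kinase in a time-resolved FRET binding format. After 60 minutes at 22° C, signal was read at two wavelengths and converted to percent of control, normalised between untreated wells and 1 μM reference inhibitor.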

[4] = target: recombinant human FGFR1 catalytic domain (amino acids 308-731) (Homo sapiens (Human), UniProt P11362); test: FGFR1 enzyme activity assay (LanthaScreen TR-FRET); assay type: biochemical; conditions: 20 min incubation at 22° C., average of multiple determinations if made, read-out: FGFR1 Enz FRET IC50
Method in brief: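 His-tagged FGFR1 kinase domain with 100 nM Alexa Fluor 647-poly-GT peptide and ATP in pH 7.5 HEPES/MgCl2 buffer with 2% DMSO, 20 min at 22 °C. Quenched with EDTA plus 2 nM Eu-PY20 antibody and read after 60 min. IC50 comes from a 4-parameter fit of percent of control.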

[5] = target: recombinant human FGFR2 cytoplasmic domain (amino acids 403-822) (Homo sapiens (Human), UniProt P21802); test: FGFR2 enzyme activity assay (LanthaScreen TR-FRET); assay type: biochemical; conditions: 15 μM ATP, 20 min incubation at 22° C., average of multiple determinations if made, read-out: FGFR2 Enz FRET IC50
Method in brief: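 His-tagged FGFR2 cytoplasmic domain ([…]) with 100 nM Alexa Fluor 647-poly-GT peptide and 15 μM ATP in HEPES/MgCl2/Triton buffer, pH 7.5, 2% DMSO, 20 min at 22 °C. EDTA-quenched, Eu-PY20 antibody added, TR-FRET read after 60 min.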

Chain of dephosphorylated FGFR1 (SEQ ID NO: 1, amino acids 458 to 765) (P11362 458-765): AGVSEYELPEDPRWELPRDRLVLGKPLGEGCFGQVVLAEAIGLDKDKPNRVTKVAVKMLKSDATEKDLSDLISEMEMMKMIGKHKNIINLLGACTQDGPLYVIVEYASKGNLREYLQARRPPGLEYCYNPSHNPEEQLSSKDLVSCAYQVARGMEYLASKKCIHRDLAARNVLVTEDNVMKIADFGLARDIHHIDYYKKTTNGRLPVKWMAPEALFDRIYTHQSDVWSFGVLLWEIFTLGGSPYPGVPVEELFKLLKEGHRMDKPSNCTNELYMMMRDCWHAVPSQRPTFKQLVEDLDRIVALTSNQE
Chain of FGFR3 (SEQ ID NO: 5, amino acids 449-759) (P22607 449-759): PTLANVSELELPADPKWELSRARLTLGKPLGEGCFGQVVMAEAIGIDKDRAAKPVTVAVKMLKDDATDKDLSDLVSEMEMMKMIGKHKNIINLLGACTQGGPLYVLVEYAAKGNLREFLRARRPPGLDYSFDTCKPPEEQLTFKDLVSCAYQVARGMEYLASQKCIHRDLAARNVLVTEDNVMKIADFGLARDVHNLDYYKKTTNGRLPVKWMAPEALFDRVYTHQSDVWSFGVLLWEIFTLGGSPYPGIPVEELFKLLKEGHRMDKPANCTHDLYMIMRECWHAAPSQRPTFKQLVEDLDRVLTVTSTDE
Chain of recombinant human FGFR2 cytoplasmic domain (amino acids 403-822) (P21802 402-821): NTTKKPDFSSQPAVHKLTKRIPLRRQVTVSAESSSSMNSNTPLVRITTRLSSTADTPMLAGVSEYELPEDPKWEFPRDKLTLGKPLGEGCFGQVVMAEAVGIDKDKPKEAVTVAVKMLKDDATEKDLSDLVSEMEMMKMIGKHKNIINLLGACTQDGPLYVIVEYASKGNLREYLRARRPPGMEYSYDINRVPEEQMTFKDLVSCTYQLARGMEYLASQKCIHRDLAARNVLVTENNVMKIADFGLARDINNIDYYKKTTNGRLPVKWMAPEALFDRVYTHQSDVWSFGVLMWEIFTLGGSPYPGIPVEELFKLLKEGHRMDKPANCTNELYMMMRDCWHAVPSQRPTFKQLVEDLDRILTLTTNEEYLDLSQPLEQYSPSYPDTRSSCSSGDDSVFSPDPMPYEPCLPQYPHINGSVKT
Chain of HEK-293 cells transfected with dox-inducible human wild type FGFR1 (P11362 22-822): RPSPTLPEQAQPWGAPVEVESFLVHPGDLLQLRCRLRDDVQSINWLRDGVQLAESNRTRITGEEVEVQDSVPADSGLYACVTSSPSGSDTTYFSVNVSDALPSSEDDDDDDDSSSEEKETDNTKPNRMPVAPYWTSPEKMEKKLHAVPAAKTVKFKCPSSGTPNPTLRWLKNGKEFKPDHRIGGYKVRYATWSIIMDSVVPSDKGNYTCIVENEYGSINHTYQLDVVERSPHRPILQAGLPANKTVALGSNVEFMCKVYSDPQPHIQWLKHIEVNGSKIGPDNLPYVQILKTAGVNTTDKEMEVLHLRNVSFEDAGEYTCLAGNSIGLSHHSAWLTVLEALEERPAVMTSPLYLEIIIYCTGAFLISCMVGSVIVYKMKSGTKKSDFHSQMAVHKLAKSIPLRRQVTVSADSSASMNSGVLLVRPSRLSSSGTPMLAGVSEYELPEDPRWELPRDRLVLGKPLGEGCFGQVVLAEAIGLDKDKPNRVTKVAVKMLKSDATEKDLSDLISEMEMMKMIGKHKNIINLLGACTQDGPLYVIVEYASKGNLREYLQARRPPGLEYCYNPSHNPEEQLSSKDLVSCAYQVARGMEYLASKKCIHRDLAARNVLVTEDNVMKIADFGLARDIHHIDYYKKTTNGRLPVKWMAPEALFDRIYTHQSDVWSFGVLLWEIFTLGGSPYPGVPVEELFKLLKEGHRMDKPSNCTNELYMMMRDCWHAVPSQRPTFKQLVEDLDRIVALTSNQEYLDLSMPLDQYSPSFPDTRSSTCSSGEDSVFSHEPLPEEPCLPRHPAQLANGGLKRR
Chain of recombinant human FGFR1 catalytic domain (amino acids 308-731) (P11362 other isoform, or with tags, fused parts or gaps): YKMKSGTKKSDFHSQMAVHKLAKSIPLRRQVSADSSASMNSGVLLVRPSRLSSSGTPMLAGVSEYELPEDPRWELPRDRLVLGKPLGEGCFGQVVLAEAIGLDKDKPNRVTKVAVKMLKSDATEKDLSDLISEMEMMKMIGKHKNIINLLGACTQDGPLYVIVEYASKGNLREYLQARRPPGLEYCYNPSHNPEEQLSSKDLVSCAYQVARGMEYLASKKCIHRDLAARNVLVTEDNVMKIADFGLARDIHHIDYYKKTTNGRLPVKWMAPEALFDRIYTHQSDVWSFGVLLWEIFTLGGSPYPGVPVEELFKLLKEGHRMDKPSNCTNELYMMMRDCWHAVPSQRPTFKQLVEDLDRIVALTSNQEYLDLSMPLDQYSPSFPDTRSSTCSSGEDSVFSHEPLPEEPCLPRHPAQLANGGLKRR

IC50 [1] [nM] | FGFR3 Enz kobs [2] [min⁻¹] | IC50 [3] [nM] | IC50 [4] [nM] | IC50 [5] [nM] | SMILES
180 | 0.02324 | 57 | 9 | 5 | C=CC(=O)N1CC(C(=O)N2CCN(c3ccc(-c4cc(OC)c5c(C#N)cnn5c4)cc3)CC2)C1 [Example 100, 6-(4-(4-(1-acryloylazetidine-3-carbonyl)piperazin-1-yl)phenyl)-4-methoxypyrazolo[1,5-a]pyridine-3-carbonitrile]
1280 | 0.06559 | 359 | 281 | 28 | COc1cc(-c2cnn(C3CCN(CC4(OC)CN(C(=O)/C=C/CN(C)C)C4)CC3)c2C)cn2ncc(Cl)c12 [Example 173, (E)-1-(3-((4-(4-(3-chloro-4-methoxypyrazolo [1,5-a]pyridin-6-yl)-5-methyl-1H-pyrazol-1-yl)piperidin-1-yl)methyl)-3-methoxyazetidin-1-yl)-4-(dimethylamino)but-2-en-1-one]
1230 | 0.02585 | 141 | 54 | 19 | C=CC(=O)N1CC(C(=O)N2CCN(c3cnc(-c4cc(OC)c5c(C#N)cnn5c4)cn3)CC2)C1 [Example 116, 6-(5-(4-(1-acryloylazetidine-3-carbonyl)piperazin-1-yl)pyrazin-2-yl)-4-methoxypyrazolo[1,5-a]pyridine-3-carbonitrile]
≥ 5000 | 0.01937 | 90 | 85 | 25 | C=CC(=O)N1CC(C(=O)N2CCN(c3ccc(-c4cc(OC)c5c(C#N)cnn5c4)nn3)CC2)C1 [Example 115, 6-(6-(4-(1-acryloylazetidine-3-carbonyl)piperazin-1-yl)pyridazin-3-yl)-4-methoxypyrazolo[1,5-a]pyridine-3-carbonitrile]
523 | 0.00758 | 400 | 338 | 39 | C=CC(=O)N1CC(CN2CCC(n3ncc(-c4cc(OC)c5c(Cl)cnn5c4)c3C)CC2)C1(C)C (centres unmarked) [Example 120, 1-(3-((4-(4-(3-chloro-4-methoxypyrazolo[1,5-a]pyridin-6-yl)-5-methyl-1H-pyrazol-1-yl)piperidin-1-yl)methyl)-2,2-dimethylazetidin-1-yl)prop-2-en-1-one]
122 | 0.1108 | 82 | 21 | 9 | C=CC(=O)N1CC(F)(C(=O)N2CCN(c3ccc(-c4cc(OC)c5c(C#N)cnn5c4)cn3)CC2)C1 [Example 112, 6-(6-(4-(1-acryloyl-3-fluoroazetidine-3-carbonyl)piperazin-1-yl)pyridin-3-yl)-4-methoxypyrazolo[1,5-a]pyridine-3-carbonitrile]
2630 | 0.00747 | 430 | 335 | 16 | COC/C=C/C(=O)N1CC(F)(C(=O)N2CCC(n3ncc(-c4cc(OC)c5c(C#N)cnn5c4)c3C)CC2)C1 [Example 154, (E)-6-(1-(1-(3-fluoro-1-(4-methoxybut-2-enoyl)azetidine-3-carbonyl)piperidin-4-yl)-5-methyl-1H-pyrazol-4-yl)-4-methoxypyrazolo [1,5-a]pyridine-3-carbonitrile]
591 | 0.04536 | 565 | 334 | 219 | C=CC(=O)N1CC(CN2CCC(n3ncc(-c4cc(OC)c5c(Cl)cnn5c4)c3C)CC2)(OC)C1 [Example 119, 1-(3-((4-(4-(3-chloro-4-methoxypyrazolo[1,5-a]pyridin-6-yl)-5-methyl-1H-pyrazol-1-yl)piperidin-1-yl)methyl)-3-methoxyazetidin-1-yl)prop-2-en-1-one]
≥ 5000 | 0.00475 | 52 | 15 | 4 | COc1cc(-c2cnn(C3CCN(C(=O)C4CN(C(=O)/C=C/CN5CCOCC5)C4)CC3)c2)cn2ncc(C#N)c12 [Example 184, (E)-4-methoxy-6-(1-(1-(1-(4-morpholinobut-2-enoyl)azetidine-3-carbonyl)piperidin-4-yl)-1H-pyrazol-4-yl)pyrazolo[1,5-a]pyridine-3-carbonitrile]
573 | 0.02186 | 70 | 49 | 10 | C=CC(=O)N1CC(C(=O)N2CCC3(C2)CN(c2ccc(-c4cc(OC)c5c(C#N)cnn5c4)cn2)C3)C1 [Example 103, 6-(6-(6-(1-acryloylazetidine-3-carbonyl)-2,6-diazaspiro[3.4]octan-2-yl)pyridin-3-yl)-4-methoxypyrazolo[1,5-a]pyridine-3-carbonitrile]
≥ 5000 | 0.00171 | 40 | 43 | 5 | COc1cc(-c2cnn(C3CCN(C(=O)C4CN(C(=O)/C=C/CO)C4)CC3)c2)cn2ncc(C#N)c12 [Example 141, (E)-6-(1-(1-(1-(4-hydroxybut-2-enoyl)azetidine-3-carbonyl)piperidin-4-yl)-1H-pyrazol-4-yl)-4-methoxypyrazolo [1,5-a]pyridine-3-carbonitrile]
157 |  | 426 | 255 | 114 | COc1cc(-c2cnn(C3CCN(C(=O)C4(F)CN(C(=O)/C=C/C(F)(F)F)C4)CC3)c2C)cn2ncc(C#N)c12 [Example 155, (E)-6-(1-(1-(3-fluoro-1-(4,4,4-trifluorobut-2-enoyl)azetidine-3-carbonyl)piperidin-4-yl)-5-methyl-1H-pyrazol-4-yl)-4-methoxypyrazolo [1,5-a]pyridine-3-carbonitrile]
130 | 0.1329 | 14 | 19 |  | COc1cc(-c2cnn(C3CCN(C(=O)C4CN(C(=O)/C=C/CBr)C4)CC3)c2)cn2ncc(C#N)c12 [Example 180, (E)-6-(1-(1-(1-(4-bromobut-2-enoyl)azetidine-3-carbonyl)piperidin-4-yl)-1H-pyrazol-4-yl)-4-methoxypyrazolo[1,5-a]pyridine-3-carbonitrile]
 | 0.02588 | 194 | 16 | 6 | COc1cc(-c2cnn(C3CCN(C(=O)C4CN(C(=O)/C=C/CN(C)C)C4)CC3)c2)cn2ncc(Cl)c12 [Example 174]
 | 0.01127 | 7 | 3 | 3 | C=CC(=O)N1CC(C(=O)N2CCC(n3cc(-c4cc(-c5ccc(NC(=O)C6CC6)cc5F)c5c(C#N)cnn5c4)cn3)CC2)C1 [Example 130, N-(4-(6-(1-(1-(1-acryloylazetidine-3-carbonyl)piperidin-4-yl)-1H-pyrazol-4-yl)-3-cyanopyrazolo[1,5-a]pyridin-4-yl)-3-fluorophenyl)cyclopropane-carboxamide]
 | 0.01122 | 73 | 18 | 7 | C=CC(=O)N1CC2(CCN(C(=O)N3CCC(n4cc(-c5cc(OC)c6c(C#N)cnn6c5)cn4)CC3)C2)C1 [Example 8, 6-(1-(1-(2-acryloyl-2,6-diazaspiro[3.4]octane-6-carbonyl)piperidin-4-yl)-1H-pyrazol-4-yl)-4-methoxypyrazolo[1,5-a]pyridine-3-carbonitrile]
 | 0.01469 | 61 | 14 | 5 | C=CC(=O)N(C)c1ccc(C(=O)N2CCC(n3cc(-c4cc(OC)c5c(C#N)cnn5c4)cn3)CC2)cc1 [Example 178, N-(4-(4-(4-(3-cyano-4-methoxypyrazolo[1,5-a]pyridin-6-yl)-1H-pyrazol-1-yl)piperidine-1-carbonyl)phenyl)-N-methylacrylamide]
 | 0.00206 | 210 | 22 | 7 | C=CC(=O)N1CCC(n2cc(-c3cc(OC)c4c(C#N)cnn4c3)cn2)CC1 [Example 11, 6-(1-(1-acryloylpiperidin-4-yl)-1H-pyrazol-4-yl)-4-methoxypyrazolo[1,5-a]pyridine-3-carbonitrile]
